Source: patent publication US11479528B2, “Heat shock protein 90 inhibitors” (TAIPEI MEDICAL UNIVERSITY, priority 2017, dated 2022)
Like-named read-outs stand apart in the source and are kept apart here.

Key:
lung A549 = assay: Sulforhodamine B (SRB) assay, lung A549; assay type: cell-based, human
Experimental: Human cancer cells were purchased from the American Type Culture Collection (Manassas, Va., USA).
Cells were seeded in 96-well plates in medium with 5% fetal bovine serum. […] Unbound sulforhodamine B was washed out by 1% acetic acid and sulforhodamine B-bound cells were solubilized with 10 mmol/L Trizma base. […] Using the following absorbance measurements, such as time zero (T0), control growth (C), and cell growth in the presence of the drug (Tx), the percentage growth was calculated at each of the compound concentrations levels. Percentage growth inhibition was calculated as […].

colorectal HCT116 = assay: Sulforhodamine B (SRB) assay, colorectal HCT116; assay type: cell-based; settings: Homo sapiens, HCT-116, SRB
Experimental: (§1) Human cancer cells were purchased from the American Type Culture Collection (Manassas, Va., USA). These cell lines were cultured in RPMI 1640 medium or DMEM supplemented with 10% FBS (v/v) and pencillin (100 U/mL)/streptomycin (100 ug/mL)/amphotericin B (0.25 ug/mL). Cultures were maintained at 37° C. in a humidified atmosphere of 5% CO2/95% air.
(§2) Cells were seeded in 96-well plates in medium with 5% fetal bovine serum. After 24 h, cells were fixed with 10% trichloroacetic acid to represent cell population at the time of drug addition (T0). After additional incubation of DMSO or drugs for 48 h, cells were fixed with 10% trichloroacetic acid and sulforhodamine B at 0.4% (w/v) in 1% acetic acid was added to stain cells. Unbound sulforhodamine B was washed out by 1% acetic acid and sulforhodamine B-bound cells were solubilized with 10 mmol/L Trizma base. The absorbance was read at a wavelength of 515 nm. Using the following absorbance measurements, such as time zero (T0), control growth (C), and cell growth in the presence of the drug (Tx), the percentage growth was calculated at each of the compound concentrations levels. Percentage growth inhibition was calculated as […].

prostate PC3 = assay: Sulforhodamine B (SRB) assay, prostate PC3; assay type: cell-based; settings: Homo sapiens, Table 1, 48 h
Experimental: as §1, §2

[1] = Homo sapiens, A549, 48 h, read-out: GI50 Lung A549
[2] = Homo sapiens, A549, Table 1, SRB, 48 h, read-out: GI50 Lung A549
[3] = Table 1, 48 h, read-out: GI50 Colorectal HCT116

Row | Structure (SMILES) | GI50 (lung A549; [1]) [nM] | GI50 (lung A549; [2]) [nM] | GI50 (prostate PC3) [nM] | also measured
1 | C=CCNC1=C2C[C@@H](C)C[C@H](OC)[C@H](O)[C@@H](C)/C=C(\C)[C@H](OC(N)=O)[C@@H](OC)/C=C\C=C(/C)C(=O)NC(=CC1=O)C2=O [Compound 17-AAG, 17-allylamino-17-desmethoxygeldanamycin, reference compound] |  |  |  | GI50 (lung A549; Homo sapiens, A549, Table 2, SRB, read-out: A549 GI50): 80 ± 10 nM; GI50 (colorectal HCT116; Table 2, read-out: HCT116 GI50): 340 ± 60 nM
2 | CC(C)c1cc(C(=O)Nc2ccc3cc[nH]c3c2)c(O)cc1O [Compound 21a, 2,4-dihydroxy-N-(1H-indol-6-yl)-5-isopropylbenzamide] | 300 ± 30 |  |  | 
3 | CC(C)c1cc(C(=O)Nc2ccc3ccn(C)c3c2)c(O)cc1O [Compound 21b, 2,4-dihydroxy-5-isopropyl-N-(1-methyl-1H-indol-6-yl)benzamide] | > 10000 |  |  | 
4 | CC(C)c1cc(C(=O)N(C)c2ccc3ccn(C)c3c2)c(O)cc1O [Compound 21c, 2,4-dihydroxy-5-isopropyl-N-methyl-N-(1-methyl-1H-indol-6-yl)benzamide] | 100 ± 20 |  |  | 
5 | CCN(C(=O)c1cc(C(C)C)c(O)cc1O)c1ccc2ccn(C)c2c1 [Compound 21d, N-ethyl-2,4-dihydroxy-5-isopropyl-N-(1-methyl-1H-indol-6-yl)benzamide] | 90 ± 10 |  |  | 
6 | CCCN(C(=O)c1cc(C(C)C)c(O)cc1O)c1ccc2ccn(C)c2c1 [Compound 21e, 2,4-dihydroxy-5-isopropyl-N-(1-methyl-1H-indol-6-yl)-N-propylbenzamide] | 1620 ± 120 |  |  | 
7 | CC(C)c1cc(C(=O)N(c2ccc3ccn(C)c3c2)C(C)C)c(O)cc1O [Compound 21f, 2,4-dihydroxy-N,5-diisopropyl-N-(1-methyl-1H-indol-6-yl)benzamide] | 840 ± 40 |  |  | 
8 | CC(C)c1cc(C(=O)Nc2cccc3ccn(C)c23)c(O)cc1O [Compound 22a, 2,4-dihydroxy-5-isopropyl-N-(1-methyl-1H-indol-7-yl)benzamide] | > 10000 |  |  | 
9 | CC(C)c1cc(C(=O)N(C)c2cccc3ccn(C)c23)c(O)cc1O [Compound 22b, 2,4-dihydroxy-5-isopropyl-N-methyl-N-(1-methyl-1H-indol-7-yl)benzamide] | > 10000 |  |  | 
10 | CCN(C(=O)c1cc(C(C)C)c(O)cc1O)c1cccc2ccn(C)c12 [Compound 22c, N-ethyl-2,4-dihydroxy-5-isopropyl-N-(1-methyl-1H-indol-7-yl)benzamide] | > 10000 |  |  | 
11 | CCCN(C(=O)c1cc(C(C)C)c(O)cc1O)c1cccc2ccn(C)c12 [Compound 22d, 2,4-dihydroxy-5-isopropyl-N-(1-methyl-1H-indol-7-yl)-N-propylbenzamide] | > 10000 |  |  | 
12 | CC(C)c1cc(C(=O)N(c2cccc3ccn(C)c23)C(C)C)c(O)cc1O [Compound 22e, 2,4-dihydroxy-N,5-diisopropyl-N-(1-methyl-1H-indol-7-yl)benzamide] | > 10000 |  |  | 
13 | CC(C)c1cc(C(=O)N(C)c2ccc3c(c2)CCN3)c(O)cc1O [Compound 23b, 2,4-dihydroxy-N-(indolin-5-yl)-5-isopropyl-N-methylbenzamide] |  | 2820 ± 30 |  | GI50 (colorectal HCT116; [3]): 5530 ± 380 nM
14 | CC(C)c1cc(C(=O)N(C)c2cnc3c(ccn3C)c2)c(O)cc1O [Compound 24c, 2,4-dihydroxy-5-isopropyl-N-methyl-N-(1-methyl-1H-pyrrolo[2,3-b]pyridin-5-yl)benzamide] |  | 270 ± 30 |  | GI50 (colorectal HCT116; [3]): 710 ± 80 nM
15 | CCN(C(=O)c1cc(C(C)C)c(O)cc1O)c1cnc2c(ccn2C)c1 [Compound 24d, N-ethyl-2,4-dihydroxy-5-isopropyl-N-(1-methyl-1H-pyrrolo[2,3-b]pyridin-5-yl)benzamide] |  | 230 ± 30 |  | GI50 (colorectal HCT116; [3]): 440 ± 190 nM
16 | CCCN(C(=O)c1cc(C(C)C)c(O)cc1O)c1cnc2c(ccn2C)c1 [Compound 24e, 2,4-dihydroxy-5-isopropyl-N-(1-methyl-1H-pyrrolo[2,3-b]pyridin-5-yl)-N-propylbenzamide] |  | 2100 ± 170 |  | GI50 (colorectal HCT116; [3]): 3760 ± 230 nM
17 | CC(C)c1cc(C(=O)N(c2cnc3c(ccn3C)c2)C(C)C)c(O)cc1O [Compound 24f, 2,4-dihydroxy-N, 5-diisopropyl-N-(1-methyl-1H-pyrrolo[2,3-b]pyridin-5-yl)benzamide] |  | 2060 ± 120 |  | GI50 (colorectal HCT116; [3]): 3140 ± 870 nM
18 | CC(C)c1cc(C(=O)Nc2ccc3[nH]ncc3c2)c(O)cc1O [Compound 25a, 2,4-dihydroxy-N-(1H-indazol-5-yl)-5-isopropylbenzamide] |  | > 10000 | > 10000 | 

Row | Structure (SMILES) | GI50 (lung A549; [1]) [nM] | GI50 (lung A549; [2]) [nM] | GI50 (prostate PC3) [nM] | also measured
19 | CC(C)c1cc(C(=O)N(C)c2ccc3c(cnn3C)c2)c(O)cc1O [Compound 25b, 2,4-dihydroxy-5-isopropyl-N-methyl-N-(1-methyl-1H-indazol-5-yl)benzamide] |  | 110 ± 10 | 100 ± 10 | 
20 | CC(C)c1cc(C(=O)Nc2cnc3c(cnn3C)c2)c(O)cc1O [Compound 26b, 2,4-dihydroxy-5-isopropyl-N-(1-methyl-1H-pyrazolo[3,4-b]pyridin-5-yl)benzamide] |  | > 10000 |  | GI50 (colorectal HCT116; [3]): > 10000 nM
21 | CC(C)c1cc(C(=O)N(C)c2cnc3c(cnn3C)c2)c(O)cc1O [Compound 26c, 2,4-dihydroxy-5-isopropyl-N-methyl-N-(1-methyl-1H-pyrazolo[3,4-b]pyridin-5-yl)benzamide] |  | 700 ± 40 |  | GI50 (colorectal HCT116; [3]): 1150 ± 220 nM
22 | CCN(C(=O)c1cc(C(C)C)c(O)cc1O)c1cnc2c(cnn2C)c1 [Compound 26d, N-ethyl-2,4-dihydroxy-5-isopropyl-N-(1-methyl-1H-pyrazolo[3,4-b]pyridin-5-yl)benzamide] |  | 380 ± 20 |  | GI50 (colorectal HCT116; [3]): 710 ± 60 nM
23 | CCCN(C(=O)c1cc(C(C)C)c(O)cc1O)c1cnc2c(cnn2C)c1 [Compound 26e, 2,4-dihydroxy-5-isopropyl-N-(1-methyl-1H-pyrazolo[3,4-b]pyridin-5-yl)-N-propylbenzamide] |  | 4210 ± 220 |  | GI50 (colorectal HCT116; [3]): 8290 ± 290 nM
24 | CC(C)c1cc(C(=O)N(c2cnc3c(cnn3C)c2)C(C)C)c(O)cc1O [Compound 26f, 2,4-dihydroxy-N, 5-diisopropyl-N-(1-methyl-1H-pyrazolo[3,4-b]pyridin-5-yl)benzamide] |  | 3640 ± 50 |  | GI50 (colorectal HCT116; [3]): 6860 ± 480 nM
25 | CC(C)c1cc(C(=O)Nc2cnc3ccccc3c2)c(O)cc1O [Compound 28a, 2,4-dihydroxy-5-isopropyl-N-(quinolin-3-yl)benzamide] |  | > 10000 | > 10000 | 
26 | CC(C)c1cc(C(=O)N(C)c2cnc3ccccc3c2)c(O)cc1O [Compound 28b, 2,4-dihydroxy-5-isopropyl-N-methyl-N-(quinolin-3-yl)benzamide] |  | > 10000 | > 10000 | 
27 | CCN(C(=O)c1cc(C(C)C)c(O)cc1O)c1cnc2ccccc2c1 [Compound 28c, N-ethyl-2,4-dihydroxy-5-isopropyl-N-(quinolin-3-yl)benzamide] |  | 280 ± 50 |  | 
28 | CC(C)c1cc(C(=O)Nc2cccc3ncccc23)c(O)cc1O [Compound 29a, 2,4-dihydroxy-5-isopropyl-N-(quinolin-5-yl)benzamide] |  | > 10000 | > 10000 | 
29 | CC(C)c1cc(C(=O)Nc2ccc3ncccc3c2)c(O)cc1O [Compound 30a, 2,4-dihydroxy-5-isopropyl-N-(quinolin-6-yl)benzamide] |  | > 10000 | > 10000 | 
30 | CC(C)c1cc(C(=O)N(C)c2ccc3ncccc3c2)c(O)cc1O [Compound 30b, 2,4-dihydroxy-5-isopropyl-N-methyl-N-(quinolin-6-yl)benzamide] |  | > 10000 | > 10000 | 
31 | CCN(C(=O)c1cc(C(C)C)c(O)cc1O)c1ccc2ncccc2c1 [Compound 30c, N-ethyl-2,4-dihydroxy-5-isopropyl-N-(quinolin-6-yl)benzamide] |  | 510 ± 90 | 460 ± 130 | 
32 | CC(C)c1cc(C(=O)Nc2cccc3cccnc23)c(O)cc1O [Compound 31a, 2,4-dihydroxy-5-isopropyl-N-(quinolin-8-yl)benzamide] |  | > 10000 | > 10000 | 
33 | CCN(C(=O)c1cc(C(C)C)c(O)cc1O)c1cccc2cccnc12 [Compound 31c, N-ethyl-2,4-dihydroxy-5-isopropyl-N-(quinolin-8-yl)benzamide] |  | 3700 ± 170 | 2400 ± 270 | 
34 | Cc1cc(NC(=O)c2cc(C(C)C)c(O)cc2O)c2ccccc2n1 [Compound 32a, 2,4-dihydroxy-5-isopropyl-N-(2-methylquinolin-4-yl)benzamide] |  | > 10000 | > 10000 | 
35 | CCN(C(=O)c1cc(C(C)C)c(O)cc1O)c1cccnc1C [Compound 34a, N-ethyl-2,4-dihydroxy-5-isopropyl-N-(2-methylpyridin-3-yl)benzamide] |  |  |  | GI50 (lung A549; Table 1, SRB, 48 h, read-out: GI50 Lung A549): > 10000 nM
36 | CCN(C(=O)c1cc(C(C)C)c(O)cc1O)c1cccnc1OCc1ccccc1 [Compound 34b, N-(2-(benzyloxy)pyridin-3-yl)-N-ethyl-2,4-dihydroxy-5-isopropylbenzamide] |  | 210 ± 10 |  | 
